Reference: ChEMBL document CHEMBL3244272, “Folate antagonists. 15. 2,3-Diamino-6-(2-naphthylsulfonyl)quinazoline and related 2,4-diamino-6-[(phenyl and naphthyl)sulfinyl and sulfonyl]quinazolines, a potent new class of antimetabolites with phenomenal antimalarial activity” (J Med Chem, 1979)
In brackets after ≈: the same amount, converted by molar mass. Activity calls are given as the source filed them. The rule behind the calls is not given here.

Tests used:
Plasmodium gallinaceum [1] = experiment: Antimalarial activity against sporozoite-induced Plasmodium gallinaceum infected in chick assessed as change in cured at 30 mg/kg, sc single dose; type: functional; conditions: route subcutaneous
Plasmodium berghei [2] = experiment: Antimalarial activity against trophozoite-induced Plasmodium berghei infected in sc dosed mouse assessed as minimum curative dose; type: functional
Plasmodium gallinaceum [3] = experiment: Antimalarial activity against sporozoite-induced Plasmodium gallinaceum infected in chick assessed as change in cured at 15 mg/kg, sc single dose; type: functional; conditions: route subcutaneous
Plasmodium berghei [4] = experiment: Antimalarial activity against trophozoite-induced Plasmodium berghei infected in mouse assessed as change in mean survival time at 80 mg/kg, sc single dose after 72 hrs of infection; type: functional; conditions: route subcutaneous
Plasmodium berghei [5] = experiment: Antimalarial activity against trophozoite-induced Plasmodium berghei infected in mouse assessed as change in mean survival time at 20 mg/kg, sc single dose after 72 hrs of infection; type: functional; conditions: route subcutaneous
Plasmodium berghei [6] = experiment: Antimalarial activity against trophozoite-induced Plasmodium berghei infected in mouse assessed as change in mean survival time at 40 mg/kg, sc single dose after 72 hrs of infection; type: functional; conditions: route subcutaneous
Plasmodium gallinaceum [7] = experiment: Antimalarial activity against sporozoite-induced Plasmodium gallinaceum infected in chick assessed as change in cured at 60 mg/kg, sc single dose; type: functional; conditions: route subcutaneous
Plasmodium berghei [8] = experiment: Antimalarial activity against trophozoite-induced Plasmodium berghei infected in mouse assessed as change in mean survival time at 10 mg/kg, sc single dose after 72 hrs of infection; type: functional; conditions: route subcutaneous
Plasmodium falciparum [9] = experiment: Antimalarial activity against Plasmodium falciparum Malayan Camp CH/Q infected in po once daily dosed Owl monkey assessed as curative dose compound treated for 7 days; type: functional
Plasmodium falciparum [10] = experiment: Antimalarial activity against chloroquine-resistant, pyrimethamine-sensitive Plasmodium falciparum Vietnam Oak Knoll in Aotus monkey assessed as dose required to >50% cures compound treated for 7 days; type: functional
Plasmodium vivax [11] = experiment: Antimalarial activity against Plasmodium vivax New Guinea Chesson in po once daily dosed Owl monkey assessed as curative dose compound treated for 7 days; type: functional
Plasmodium vivax [12] = experiment: Antimalarial activity against Plasmodium vivax VietnamPalo Alto in po once daily dosed Owl monkey assessed as curative dose compound treated for 7 days; type: functional
Plasmodium falciparum [13] = experiment: Antimalarial activity against Plasmodium falciparum Vietnam Smith in po once daily dosed Owl monkey assessed as curative dose compound treated for 7 days; type: functional
Plasmodium falciparum [14] = experiment: Antimalarial activity against chloroquine-sensitive, pyrimethamine-resistant Plasmodium falciparum Malayan Camp CH/Q infected in Aotus monkey assessed as dose required to >50% cures compound treated for 7 days; type: functional
Plasmodium falciparum [15] = experiment: Antimalarial activity against Plasmodium falciparum Vietnam Oak Knoll in po once daily dosed Owl monkey assessed as curative dose compound treated for 7 days; type: functional
Plasmodium gallinaceum [16] = experiment: Antimalarial activity against trophozoite-induced Plasmodium gallinaceum infected in chick assessed as mean survival time at 120 mg/kg, sc single dose (reference value: 4 days); type: functional; conditions: route subcutaneous
Plasmodium berghei [17] = experiment: Antimalarial activity against trophozoite-induced Plasmodium berghei infected in mouse assessed as change in mean survival time at 160 mg/kg, sc single dose after 72 hrs of infection; type: functional; conditions: route subcutaneous
Plasmodium gallinaceum [18] = experiment: Antimalarial activity against trophozoite-induced Plasmodium gallinaceum infected in chick assessed as cured at 120 mg/kg, sc single dose; type: functional, organism-based; design: dose 120 mg/kg
Gallus gallus = experiment: Toxicity in trophozoite-induced Plasmodium gallinaceum infected in chick assessed as death at 120 mg/kg, sc single dose measured within 48 hrs; type: organism-based; design: dose 120 mg/kg, route subcutaneous; conditions: chicken, in vivo
Enterococcus faecalis = experiment: Antibacterial activity against Streptococcus faecalis MGH-2 assessed as growth inhibition; type: functional
Escherichia coli = experiment: Antibacterial activity against Escherichia coli Vogel assessed as growth inhibition; type: functional
Pseudomonas aeruginosa = experiment: Antibacterial activity against Pseudomonas aeruginosa 28 assessed as growth inhibition; type: functional
Shigella sonnei = experiment: Antibacterial activity against Shigella sonnei C-10 assessed as growth inhibition; type: functional
Plasmodium berghei [19] = experiment: Antimalarial activity against trophozoite-induced Plasmodium berghei infected in mouse assessed as change in mean survival time at 320 mg/kg, sc single dose after 72 hrs of infection; type: functional; conditions: route subcutaneous
Staphylococcus aureus [20] = experiment: Antibacterial activity against Staphylococcus aureus UC-76 assessed as growth inhibition; type: functional
Plasmodium berghei [21] = experiment: Antimalarial activity against trophozoite-induced Plasmodium berghei infected in mouse assessed as change in mean survival time at 640 mg/kg, sc single dose after 72 hrs of infection; type: functional; conditions: route subcutaneous
Staphylococcus aureus [22] = experiment: Antibacterial activity against Staphylococcus aureus S18713 assessed as growth inhibition; type: functional
[23] = tested on: Mycobacterium tuberculosis; experiment: Antibacterial activity against Mycobacterium tuberculosis H37Rv assessed as growth inhibition; type: functional
Plasmodium berghei [24] = experiment: Antimalarial activity against trophozoite-induced Plasmodium berghei infected in mouse assessed as change in mean survival time at 2.5 mg/kg, sc single dose after 72 hrs of infection; type: functional; conditions: route subcutaneous
Plasmodium gallinaceum [25] = experiment: Antimalarial activity against sporozoite-induced Plasmodium gallinaceum infected in chick assessed as change in cured at 7.5 mg/kg, sc single dose; type: functional; conditions: route subcutaneous
Plasmodium berghei [26] = experiment: Antimalarial activity against trophozoite-induced Plasmodium berghei infected in mouse assessed as change in mean survival time at 1.25 mg/kg, sc single dose after 72 hrs of infection; type: functional; conditions: route subcutaneous
Plasmodium berghei [27] = experiment: Antimalarial activity against trophozoite-induced Plasmodium berghei infected in mouse assessed as change in mean survival time at 5 mg/kg, sc single dose after 72 hrs of infection; type: functional; conditions: route subcutaneous
Plasmodium gallinaceum [28] = experiment: Antimalarial activity against sporozoite-induced Plasmodium gallinaceum infected in chick assessed as change in cured at 120 mg/kg, sc single dose; type: functional; conditions: route subcutaneous

| Structure (SMILES) | MST (Plasmodium gallinaceum [1]) [days] | MCD (Plasmodium berghei [2]) [mg/kg] | MST (Plasmodium gallinaceum [3]) [days] | MST (Plasmodium berghei [4]) [days] | MST (Plasmodium berghei [5]) [days] | MST (Plasmodium berghei [6]) [days] | MST (Plasmodium gallinaceum [7]) [days] | MST (Plasmodium berghei [8]) [days] | MST (Plasmodium berghei [17]) [days] | MIC (Enterococcus faecalis) [µg/mL] | MIC (Escherichia coli) [µg/mL] | MIC (Pseudomonas aeruginosa) [µg/mL] | MIC (Shigella sonnei) [µg/mL] | MIC (Staphylococcus aureus [20]) [µg/mL] | MIC (Staphylococcus aureus [22]) [µg/mL] | MIC [23] [µg/mL] | MST (Plasmodium berghei [24]) [days] | MST (Plasmodium gallinaceum [25]) [days] | MST (Plasmodium berghei [26]) [days] | MST (Plasmodium berghei [27]) [days] | further results |
| --- | --- | --- | --- | --- | --- | --- | --- | --- | --- | --- | --- | --- | --- | --- | --- | --- | --- | --- | --- | --- | --- |
| Nc1nc(N)c2cc([S+]([O-])c3ccc(F)cc3)ccc2n1 (stereo unspecified) | 0.7 | 20 | 1 | 16.9 | 8.9 | 11.5 | 0.7 | 5.5 |  |  |  |  |  |  |  |  |  |  |  |  |  |
| C=C[C@H]1CN2CC[C@H]1C[C@H]2[C@H](O)c1ccnc2ccc(OC)cc12.Cl [QUININE HYDROCHLORIDE] |  |  |  |  |  |  |  |  |  |  |  |  |  |  |  |  |  |  |  |  | CD90 (Plasmodium falciparum [9]): 20 mg/kg; Activity (Plasmodium falciparum [10]): 40 mg/kg; CD90 (Plasmodium vivax [11]): 40 mg/kg; CD90 (Plasmodium vivax [12]): 40 mg/kg; CD90 (Plasmodium falciparum [13]): >80 mg/kg; Activity (Plasmodium falciparum [14]): 80 mg/kg; CD90 (Plasmodium falciparum [15]): 80 mg/kg |
| COc1ccc([S+]([O-])c2ccc3nc(N)nc(N)c3c2)cc1 (stereo unspecified) |  | 20 |  | 13.2 | 2.7 | 10.5 |  | 0.7 | 25.9 |  |  |  |  |  |  |  |  |  |  |  | MST (Plasmodium gallinaceum [16]): 24.2 days; Activity (Plasmodium gallinaceum [18]): Active; Activity (Gallus gallus): Toxic |
| Nc1nc(N)c2cc(S(=O)(=O)c3ccccc3-c3ccccc3)ccc2n1 |  | 640 |  | 0.5 | 0.3 | 0.3 |  |  | 0.7 | 0.25 (≈ 0.664 µM) | > 25 | > 25 | > 25 | > 25 | > 25 |  |  |  |  |  | MST (Plasmodium berghei [19]): 0.7 days; MST (Plasmodium berghei [21]): 1.1 days |
| COc1cccc(S(=O)(=O)c2ccc3nc(N)nc(N)c3c2)c1 | 0 | 320 | 0 | 12.5 | 3.9 | 8.9 | 0 | 1.1 | 13.2 | < 0.25 | 2.5 (≈ 7.57 µM) | > 25 | > 25 | 1 (≈ 3.03 µM) | 2 (≈ 6.05 µM) | 25 (≈ 75.7 µM) |  |  |  |  | MST (Plasmodium gallinaceum [16]): 13.2 days; MST (Plasmodium berghei [19]): 23.9 days; Activity (Plasmodium gallinaceum [18]): Active; Activity (Gallus gallus): Toxic |
| Cc1c([S+]([O-])c2ccc3ccccc3c2)ccc2nc(N)nc(N)c12 (stereo unspecified) | 3.7 | 20 | 3.7 |  |  |  | 3.7 |  |  | < 0.25 | > 25 | > 25 | > 25 | > 25 | > 25 |  | 10.7 | 3.7 | 9.7 | 22.9 |  |
| Nc1nc(N)c2cc([S+]([O-])c3ccccc3-c3ccccc3)ccc2n1 (stereo unspecified) | 0 | 640 | 0 | 0.5 | 0.3 | 0.3 | 3.7 | 0.3 | 3.3 | < 0.25 | > 25 | > 25 | > 25 | 2.5 (≈ 6.94 µM) | 5 (≈ 13.9 µM) | 25 (≈ 69.4 µM) |  |  |  |  | MST (Plasmodium berghei [19]): 5.7 days; MST (Plasmodium berghei [21]): 12.7 days |
| Nc1nc(N)c2cc([S+]([O-])c3ccccc3)ccc2n1 (stereo unspecified) | 0 | 160 | 0 | 15.9 | 4.9 | 11.3 |  | 1.1 |  | < 0.25 | 1.5 (≈ 5.28 µM) | > 25 | 15 (≈ 52.8 µM) | < 0.25 | < 0.25 | 20 (≈ 70.3 µM) |  | 0 |  |  |  |
| Nc1nc(N)c2cc(S(=O)(=O)c3cccc(-c4ccccc4)c3)ccc2n1 | 0 | 40 | 0 |  | 21.9 | 16.9 |  | 13.9 |  | < 0.25 | > 25 | > 25 | > 25 | 1 (≈ 2.66 µM) | 1.5 (≈ 3.98 µM) | > 25 | 9.3 | 2.4 | 4.1 | 13.6 |  |
| Nc1nc(N)c2cc([S+]([O-])c3cccc(C(F)(F)F)c3)ccc2n1 (stereo unspecified) |  | 40 |  |  | 21.4 |  |  | 12.7 |  | < 0.25 | > 25 | > 25 | > 25 | < 0.25 | < 0.25 |  | 4.1 | 6.4 | 1.1 | 9.1 |  |
| CCN(CC)CCCC(C)Nc1ccnc2cc(Cl)ccc12 (stereo unspecified) [CHLOROQUINE] |  |  |  |  |  |  |  |  |  |  |  |  |  |  |  |  |  |  |  |  | CD90 (Plasmodium falciparum [9]): 5 mg/kg; Activity (Plasmodium falciparum [10]): >20 mg/kg; CD90 (Plasmodium vivax [11]): 2.5 mg/kg; CD90 (Plasmodium vivax [12]): 2.5 mg/kg; CD90 (Plasmodium falciparum [13]): >20 mg/kg; Activity (Plasmodium falciparum [14]): 5 mg/kg; CD90 (Plasmodium falciparum [15]): 2 mg/kg |
| Nc1nc(N)c2cc(S(=O)(=O)c3ccc(Cl)c(Cl)c3)ccc2n1 |  | 10 |  |  | 11.2 |  |  | 10.3 |  | < 0.25 | 2.5 (≈ 6.77 µM) | > 25 | 20 (≈ 54.2 µM) | 0.5 (≈ 1.35 µM) | 1 (≈ 2.71 µM) | 20 (≈ 54.2 µM) | 3.5 |  | 1.1 | 5.9 | MST (Plasmodium gallinaceum [28]): 0 days |
| Nc1nc(N)c2cc([S+]([O-])c3c(F)c(F)cc(F)c3F)ccc2n1 (stereo unspecified) |  | 80 |  | 13.9 | 0.9 | 10.7 |  | 0.5 | 16.7 | < 0.25 | > 25 | > 25 | > 25 | 1 (≈ 2.81 µM) | 1.5 (≈ 4.21 µM) | 25 (≈ 70.2 µM) |  |  |  |  | MST (Plasmodium gallinaceum [16]): 14.8 days; Activity (Plasmodium gallinaceum [18]): Active; Activity (Gallus gallus): Toxic |
